Patent US20230003721A1, “MITOTHERAPEUTICS FOR THE TREATMENT OF BRAIN DISORDERS” (The University of Florida Research Foundation, Inc., priority 2019, published 2023)
Counter-ions that a name gives are not always drawn.

Assays:
primary neurons [1] = test: TMRM fluorescence assay of inner mitochondrial membrane potential (ΔΨm); settings: for Emax: read-out: TMRM (Effect-size); for EC50: read-out: TMRM-EC50; for TMRM Primary: primary screen; for TMRM Primary / hit in TMRM primary screen when assayed at 4 h: 12.5 μM
Procedure: Mitochondrial dyes. To assay the electrochemical potential across the inner mitochondrial membrane of cultured cells, we used the cell-permeant dye tetramethylrhodamine methyl ester (TMRM). For co-localization studies with Mt-GFP, TMRM was used at 20 nM on DIV14 and incubated for 30 min prior to imaging. For the orthogonal screen of compounds, TMRM was added to primary neurons on DIV13 at 10 nM, one hr prior to pintooling selected compounds, and incubated for 24 hr. Cells were washed 2× with pre-warmed fresh feeding media without B27 before measurements with a plate reader.
(§1) A CLARIOstar (BMG LABTECH) microplate reader was used to measure fluorescence of TMRM and luminescence produced from the ATP.
(§2) Mitochondrial membrane potential (Δψm) and luminescence-based ATP assays. […] Changes of ΔΨm in each well were monitored using the mitochondrial-specific, fluorescent dye TMRM (tetramethyl rhodamine, methyl ester; Molecular Probes) and measured using a CLARIOstar plate reader. […] This concentration was used throughout our experiments. […] Wells in columns 1 and 24 were not loaded with TMRM; these served to measure background signal which was subtracted from the wells to which TMRM was added. To measure the total ATP levels in neurons we utilized the CellTiter-Glo® luminescence-based ATP assay (Promega). DIV13 primary neurons were cultured for 24 h with either DMSO carrier or compound treatment, followed by removing 55 μl culture medium from each well. Plates were maintained at room temperature for 25 m, and 25 μl of CellTiter-Glo® Reagent with the substrate luciferin was then added to each well (Promega). Plates were covered with aluminum foil and shaken vigorously on an orbital shaker for 10 m at 200 rpm and maintained at room temperature for an additional 2 m in dark before being read with the plate reader set to the luminescence mode.
Compound library and hit picking rules. We screened 2400 compounds from the MicroSource Spectrum library. […] FIGS. 13A-13E provide details of the assays used from which hit picking rules were made. In essence, the average fluorescence for each compound in the TMRM assay was determined and compared to the average fluorescence for compounds in the population on each assay plate to produce a Z-score. The Z-scores for each individual compound assayed across the four replicate plates was then averaged.

primary neurons [2] = test: CellTiter-Glo luminescence-based ATP assay; format: cell-based, mouse; settings: for ATP: ATP orthogonal screen, 24 h; for EC50: 15 concentrations from 6 nM to 100 uM; for Emax: read-out: ATP (Effect-size)
Procedure: Measurement of ATP production. The total amount of ATP produced by cultured primary neurons was measured by CellTiter-Glo Luminescent Cell Viability Assay (Promega). A recombinant luciferase enzyme catalyzed the mono-oxygenation of luciferin while hydrolyzing ATP produced by the cells and emitting light. We followed the manufacturer's protocol with primary neurons on DIV14.
as §1, §2
Compound library and hit picking rules. We screened 2400 compounds from the MicroSource Spectrum library. […] FIGS. 13A-13E provide details of the assays used from which hit picking rules were made. In essence, the average fluorescence for each compound in the TMRM assay was determined and compared to the average fluorescence for compounds in the population on each assay plate to produce a Z-score. The Z-scores for each individual compound assayed across the four replicate plates was then averaged. Because of significant well location effects (outer rows) on each assay plate (FIG. 13G), we selected primary hits as enhancing well fluorescence above the μplate by 3σplate for inner row wells (rows C-N, columns 3-22), and by 2.5σplate for outer row wells (rows A, B, O, P; columns 3-22) (FIG. 14C-D). […] All orthogonal assays employed inner wells of the 384-well plates.

[3] = Mus musculus, Primary neuron, maximal percent increase relative to in-plate DMSO controls, dose response
[4] = maximal percent increase relative to in-plate DMSO controls, dose response

OC(CCN1CCCC1)(c1ccccc1)C1CCCCC1 (stereo not shown) [procyclidine hydrochloride]
Emax (primary neurons [1]; Mus musculus, Primary neuron): 23.3%
EC50 (primary neurons [1]; Mus musculus, Primary neuron): 850 nM
TMRM Primary (primary neurons [1]; 24 h): 4.55 Z-scores
TMRM Rescreen (primary neurons [1]; 24 h): 6.91 Z-scores
ATP (primary neurons [2]): 7.14 Z-scores
EC50 (primary neurons [2]; Mus musculus, Primary neuron, dose response): 240 nM
Emax (primary neurons [2]; [3]): 18.7%

CN1CCCC(n2nc(Cc3ccc(Cl)cc3)c3ccccc3c2=O)CC1 (stereo not shown) [azelastine hydrochloride]
TMRM Primary (primary neurons [1]; 24 h): 7.06 Z-scores
TMRM Rescreen (primary neurons [1]; 24 h): 6.13 Z-scores
ATP (primary neurons [2]): 5.30 Z-scores

CN1CCN(C2=Nc3cc(Cl)ccc3Nc3ccccc32)CC1 [clozapine]
TMRM Primary (primary neurons [1]; 24 h): 3.24 Z-scores
TMRM Rescreen (primary neurons [1]; 24 h): 5.80 Z-scores
ATP (primary neurons [2]): 3.88 Z-scores

CC12CCC3c4ccc(OCc5ccccc5)cc4CCC3C1C[C@@H](O)[C@@H]2O (stereo partly shown) [estriol benzyl ether]
TMRM Primary (primary neurons [1]; 24 h): 3.17 Z-scores
TMRM Rescreen (primary neurons [1]; 24 h): 6.67 Z-scores
ATP (primary neurons [2]): 2.03 Z-scores

CN1CCC[C@@H]1CCO[C@](C)(c1ccccc1)c1ccc(Cl)cc1 [clemastine fumarate]
TMRM Primary (primary neurons [1]; 24 h): 2.82 Z-scores
TMRM Rescreen (primary neurons [1]; 24 h): 3.22 Z-scores

COc1ccc(C(=O)/C=C/c2ccccc2)cc1 [4′-methoxychalcone]
TMRM Primary (primary neurons [1]; 24 h): 3.42 Z-scores
TMRM Rescreen (primary neurons [1]; 24 h): 1.48 Z-scores
ATP (primary neurons [2]): 3.97 Z-scores

CCc1nn(CCCN2CCN(c3cccc(Cl)c3)CC2)c(=O)n1CCOc1ccccc1 [nefazodone hydrochloride]
TMRM Primary (primary neurons [1]; 24 h): 4.00 Z-scores
TMRM Rescreen (primary neurons [1]; 24 h): 6.11 Z-scores
ATP (primary neurons [2]): 6.30 Z-scores

colistin sulfate
TMRM Primary (primary neurons [1]; 24 h): 3.27 Z-scores
TMRM Rescreen (primary neurons [1]; 24 h): 5.24 Z-scores
ATP (primary neurons [2]): 5.48 Z-scores

COc1cc(O)c2c(=O)cc(C)oc2c1CC=C(C)C [heteropeucenin, methyl ether]
TMRM Primary (primary neurons [1]; 24 h): 3.45 Z-scores
TMRM Rescreen (primary neurons [1]; 24 h): 4.33 Z-scores
ATP (primary neurons [2]): 5.92 Z-scores

CC[N+]1(C)CCCC(OC(=O)C(O)(c2ccccc2)c2ccccc2)C1 (stereo not shown) [pipenzolate bromide]
TMRM Primary (primary neurons [1]; 24 h): 3.14 Z-scores
TMRM Rescreen (primary neurons [1]; 24 h): 7.09 Z-scores
ATP (primary neurons [2]): 3.45 Z-scores

CN(C)c1cc(NC(=O)CNC(C)(C)C)c(O)c2c1C[C@H]1C[C@H]3[C@H](N(C)C)C(O)=C(C(N)=O)C(=O)[C@@]3(O)C(O)=C1C2=O [tigecycline]
TMRM Primary (primary neurons [1]; 24 h): 3.91 Z-scores
TMRM Rescreen (primary neurons [1]; 24 h): 5.95 Z-scores
ATP (primary neurons [2]): 4.97 Z-scores

Cc1ccc(C(=O)C(C)CN2CCCCC2)cc1 (stereo not shown) [tolperisone hydrochloride]
TMRM Primary (primary neurons [1]; 24 h): 3.57 Z-scores
TMRM Rescreen (primary neurons [1]; 24 h): 3.67 Z-scores
ATP (primary neurons [2]): 5.49 Z-scores

CC1(C)[C@H](O)CC(=O)[C@]2(C)[C@H]3CC[C@@]4(C)[C@H](c5ccoc5)OC(=O)[C@H]5O[C@]54[C@]3(C)C(=O)C[C@@H]12 [1,7-dideacetoxy-1,7-dioxo-3-deacetylkhivorin]
TMRM Primary (primary neurons [1]; 24 h): 3.65 Z-scores
TMRM Rescreen (primary neurons [1]; 24 h): 4.00 Z-scores
ATP (primary neurons [2]): 5.46 Z-scores

O=c1[nH]c2ccccc2n1CCCN1CCC(n2c(=O)[nH]c3cc(Cl)ccc32)CC1 [DOMPERIDONE]
Emax (primary neurons [1]; Mus musculus, Primary neuron): 28.3%
TMRM Primary (primary neurons [1]; 24 h): 3.33 Z-scores
TMRM Rescreen (primary neurons [1]; 24 h): 5.58 Z-scores
ATP (primary neurons [2]): 5.20 Z-scores
Emax (primary neurons [2]; [3]): 13%

Nc1c(Br)cc(Br)cc1CN[C@H]1CC[C@H](O)CC1 [ambroxol hydrochloride]
TMRM Primary (primary neurons [1]; 24 h): 4.00 Z-scores
TMRM Rescreen (primary neurons [1]; 24 h): 5.14 Z-scores
ATP (primary neurons [2]): 5.04 Z-scores

CC(C)(c1ccc(O)cc1)c1ccc(O)cc1 [bisphenol a]
hit in TMRM primary screen when assayed at 4 h (primary neurons [1]): bisphenol a*
TMRM Primary (primary neurons [1]; 24 h): 3.35 Z-scores
TMRM Rescreen (primary neurons [1]; 24 h): 7.40 Z-scores
ATP (primary neurons [2]): 4.73 Z-scores

acetophenazine maleate
TMRM (Effect-size) (primary neurons [1]; [4]): 17.5%
TMRM Primary (primary neurons [1]; 24 h): 5.64 Z-scores
EC50 (primary neurons [1]; dose response, 15 concentrations from 6 nM to 100 uM): 1150 nM
TMRM Rescreen (primary neurons [1]; 24 h): 5.34 Z-scores
ATP (primary neurons [2]): 5.65 Z-scores
EC50 (primary neurons [2]; dose response): 300 nM
ATP (Effect-size) (primary neurons [2]; [4]): 16.7%

CCCCOc1ccc(OCCCN2CCOCC2)cc1 [pramoxine hydrochloride]
TMRM Primary (primary neurons [1]; 24 h): 2.93 Z-scores
TMRM Rescreen (primary neurons [1]; 24 h): −4.72 Z-scores
ATP (primary neurons [2]): −1.97 Z-scores

CCN(CC)CCNc1ccc(CO)c2sc3ccccc3c(=O)c12 [hycanthone]
TMRM Primary (primary neurons [1]; 24 h): 4.40 Z-scores
TMRM Rescreen (primary neurons [1]; 24 h): 5.48 Z-scores
ATP (primary neurons [2]): 4.61 Z-scores

COC(=O)C[C@H]1C2(C)CC34OC5(C)O[C@@]6([C@H](OC(C)=O)C(OC(C)=O)[C@]7(C)C(/C(=C(/O)C(C)C)C(=O)O[C@H]7c7ccoc7)[C@@]6(O5)[C@H](OC(C)=O)[C@@]3(O)C2OC(=O)C(C)C)[C@]14C (stereo partly shown) [bussein]
TMRM Primary (primary neurons [1]; 24 h): 3.44 Z-scores
TMRM Rescreen (primary neurons [1]; 24 h): 3.92 Z-scores
ATP (primary neurons [2]): 5.58 Z-scores

CN(C)CCN(Cc1ccc(Cl)cc1)c1ccccn1 [chloropyramine hydrochloride]
TMRM Primary (primary neurons [1]; 24 h): 3.35 Z-scores
TMRM Rescreen (primary neurons [1]; 24 h): 5.24 Z-scores
ATP (primary neurons [2]): 3.26 Z-scores

CC(C)CCC[C@@H](C)[C@H]1CC[C@H]2[C@@H]3CC(=O)[C@H]4C[C@@H](O)CC[C@]4(C)[C@H]3CC[C@]12C [5alpha-cholestan-3beta-ol-6-one]
TMRM Primary (primary neurons [1]; 24 h): 7.10 Z-scores
TMRM Rescreen (primary neurons [1]; 24 h): 7.61 Z-scores
ATP (primary neurons [2]): 5.86 Z-scores

O=C([O-])Cc1c[nH]cn1.[Na+] [imidazol-4-ylacetic acid sodium salt]
hit in TMRM primary screen when assayed at 4 h (primary neurons [1]): imidazol-4-ylacetic acid sodium salt*
TMRM Primary (primary neurons [1]; 24 h): 3.58 Z-scores
TMRM Rescreen (primary neurons [1]; 24 h): 4.56 Z-scores
ATP (primary neurons [2]): 4.61 Z-scores

CC1=C2C[C@H]3[C@@H](CC=C4C[C@@H](O)CC[C@@]43C)[C@@H]2CC[C@]12O[C@@H]1C[C@H](C)CN[C@H]1[C@H]2C [cyclopamine]
TMRM Primary (primary neurons [1]; 24 h): 3.74 Z-scores
TMRM Rescreen (primary neurons [1]; 24 h): 8.14 Z-scores
ATP (primary neurons [2]): 5.15 Z-scores

CN(C)CCCN1c2ccccc2Sc2ccc(Cl)cc21 [chlorpromazine]
TMRM Primary (primary neurons [1]; 24 h): 2.79 Z-scores
TMRM Rescreen (primary neurons [1]; 24 h): 2.66 Z-scores
ATP (primary neurons [2]): 5.00 Z-scores

CC[C@H]1[C@@H]2C[C@H]3[C@@H]4N(C)c5ccccc5[C@]45C[C@@H]([C@H]2[C@H]5O)N3[C@@H]1O [ajmaline]
TMRM Primary (primary neurons [1]; 24 h): 3.76 Z-scores
TMRM Rescreen (primary neurons [1]; 24 h): 6.40 Z-scores
ATP (primary neurons [2]): 4.76 Z-scores

CCCNC(C)(C)COC(=O)c1ccccc1 [meprylcaine hydrochloride]
TMRM Primary (primary neurons [1]; 24 h): 3.56 Z-scores
TMRM Rescreen (primary neurons [1]; 24 h): 5.91 Z-scores
ATP (primary neurons [2]): 6.05 Z-scores

COc1ccc(-c2coc3cc(O)cc(OC)c3c2=O)cc1 [5,4′-dimethoxy-7-hydroxyisoflavone]
TMRM Primary (primary neurons [1]; 24 h): 5.24 Z-scores
TMRM Rescreen (primary neurons [1]; 24 h): 6.90 Z-scores
ATP (primary neurons [2]): 5.76 Z-scores

CC(C)N1CCN(c2ccc(OCC3COC(Cn4cncn4)(c4ccc(Cl)cc4Cl)O3)cc2)CC1 (stereo not shown) [terconazole]
TMRM Primary (primary neurons [1]; 24 h): 5.15 Z-scores
TMRM Rescreen (primary neurons [1]; 24 h): 5.95 Z-scores
ATP (primary neurons [2]): 2.82 Z-scores

CN(C)CCC=C1c2ccccc2CCc2ccccc21 [amitriptyline hydrochloride]
TMRM Primary (primary neurons [1]; 24 h): 4.78 Z-scores
TMRM Rescreen (primary neurons [1]; 24 h): 1.81 Z-scores
ATP (primary neurons [2]): 4.82 Z-scores

CCCCOC(=O)c1ccc(O)cc1 [butyl paraben]
TMRM Primary (primary neurons [1]; 24 h): 3.42 Z-scores
TMRM Rescreen (primary neurons [1]; 24 h): 4.18 Z-scores
ATP (primary neurons [2]): 3.84 Z-scores

COc1cc2oc3cc(OC)c(OC)c(CC=C(C)C)c3c(=O)c2c(O)c1CC=C(C)C [1-hydroxy-3,6,7-trimethoxy-2,8-diprenylxanthone]
TMRM Primary (primary neurons [1]; 24 h): 3.34 Z-scores
TMRM Rescreen (primary neurons [1]; 24 h): 3.27 Z-scores
ATP (primary neurons [2]): 5.44 Z-scores

CNCCC(Oc1ccc(C(F)(F)F)cc1)c1ccccc1 (stereo not shown) [fluoxetine hydrochloride]
ATP (primary neurons [2]): 3.70 Z-scores

CC(C)(C)OO [Peroxide, tert-butyl hydroperoxide]
reduction of whole well TMRM fluorescence (primary neurons [1]; 50 μM, 24 h, DIV14 neuronal cultures): ~40%
